The record followed here is ChEMBL document CHEMBL1135561, “Development of a phosphatase-stable phosphotyrosyl mimetic suitably protected for the synthesis of high-affinity Grb2 SH2 domain-binding ligands” (Bioorg Med Chem Lett, 2002).

A word on the IC50: it is the concentration that gives 50% inhibition. Low values mean inhibition by little substance, high ones a need for much substance.

Experiment [1] concerns the target T1, Growth factor receptor-bound protein 2 (Homo sapiens, UniProt P62993). The experiment in a line: Inhibition of Growth factor receptor bound protein 2 SH2 domain binding to p185erbB-2 receptor.
For experiment [2], the target named is T1, Growth factor receptor-bound protein 2. The experiment can be described thus: Binding affinity for Growth factor receptor bound protein 2 SH2 domain.
For experiment [3], the system named is MDA-MB-453. The experiment can be described thus: Inhibition of MDA-MB-453 cell proliferation. It is filed as functional, cell-based. Particulars: Homo sapiens.

T1 sequence (P62993 whole entry, the tested form may be a part): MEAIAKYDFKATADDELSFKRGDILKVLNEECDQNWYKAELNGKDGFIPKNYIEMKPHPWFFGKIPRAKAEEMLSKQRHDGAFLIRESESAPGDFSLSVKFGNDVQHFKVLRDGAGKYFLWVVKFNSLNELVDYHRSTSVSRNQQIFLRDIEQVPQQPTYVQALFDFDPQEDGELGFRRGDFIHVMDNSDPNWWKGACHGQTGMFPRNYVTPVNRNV

For `NC(=O)C[C@H](NC(=O)C1(NC(=O)[C@@H](CC(=O)O)Cc2ccc(CP(=O)(O)O)cc2)CCCCC1)C(=O)NCCCc1cccc2ccccc12`, the IC50 in experiment [1] was determined as 10 µM; in experiment [2] it was 0.008 µM; in experiment [3], 8 µM.

Consider `NC(=O)C[C@H](NC(=O)C1(NC(=O)[C@H](Cc2ccc(CP(=O)(O)O)cc2)NC(=O)C(=O)O)CCCCC1)C(=O)NCCCc1cccc2ccccc12`, for which the IC50 in experiment [1] was 3 µM; in experiment [2], 0.009 µM; in experiment [3], 5 µM.

Regarding `[N-]=[N+]=N[C@@H](Cc1ccc(CP(=O)(O)O)cc1)C(=O)NC1(C(=O)N[C@@H](CC(N)=O)C(=O)NCCCc2cccc3ccccc23)CCCCC1`, the values for the IC50 in experiment [1], in experiment [2] and in experiment [3] were over 30 µM, 5 µM and over 50 µM, respectively.
